Test results from ChEMBL document CHEMBL1155480, “Selective one-pot multicomponent synthesis and anti-tubercular evaluation of 5-(aryl/cyclohexylsulfanyl)-2-alkoxy-4,6-diarylnicotinonitriles” (2010).
In brackets after ≈: the same amount, converted by molar mass.

Test system: Mycobacterium tuberculosis
Test: Antimycobacterial activity against Mycobacterium tuberculosis H37Rv by agar dilution method
Assay type: functional

Compound	MIC [µM]
COc1nc(-c2ccc(Cl)cc2)c(SC2CCCCC2)c(-c2ccccc2Cl)c1C#N	13.3 (≈ 6.24 µg/mL)
NNC(=O)c1ccncc1 [ISONIAZID]	0.4 (≈ 0.0549 µg/mL)
CCOc1nc(-c2ccc(Cl)cc2)c(SC2CCCCC2)c(-c2ccc(Cl)cc2)c1C#N	6.5 (≈ 3.14 µg/mL)
COc1nc(-c2ccc(Cl)cc2)c(Sc2ccc(Cl)cc2)c(-c2ccc(Cl)cc2)c1C#N	3.1 (≈ 1.54 µg/mL)
COc1nc(-c2ccc(Cl)cc2)c(SC2CCCCC2)c(-c2ccc(Cl)cc2)c1C#N	13.3 (≈ 6.24 µg/mL)
COc1nc(-c2ccc(Cl)cc2)c(Sc2ccc(Cl)cc2)c(-c2ccc(N(C)C)cc2)c1C#N	12.4 (≈ 6.28 µg/mL)
COc1ccc(-c2c(C#N)c(OC)nc(-c3ccc(Cl)cc3)c2SC2CCCCC2)cc1	26.9 (≈ 12.5 µg/mL)
COc1nc(-c2ccc(Cl)cc2)c(SC2CCCCC2)c(-c2ccccc2)c1C#N	57.6 (≈ 25.1 µg/mL)
CCOc1nc(-c2ccc(Cl)cc2)c(Sc2ccc(C)cc2)c(-c2ccccc2)c1C#N	54.8 (≈ 25 µg/mL)
NC(=O)c1cnccn1 [PYRAZINAMIDE]	50.8 (≈ 6.25 µg/mL)
CCOc1nc(-c2ccc(OC)cc2)c(Sc2ccc(Cl)cc2)c(-c2ccc(N(C)C)cc2)c1C#N	24.2 (≈ 12.5 µg/mL)
CCOc1nc(-c2ccc(Cl)cc2)c(Sc2ccccc2)c(-c2ccc(N(C)C)cc2)c1C#N	> 51.4
CCOc1nc(-c2ccc(C)cc2)c(SC2CCCCC2)c(-c2ccc(N(C)C)cc2)c1C#N	26.5 (≈ 12.5 µg/mL)
CCOc1nc(-c2ccc([N+](=O)[O-])cc2)c(SC2CCCCC2)c(-c2ccc(N(C)C)cc2)c1C#N	12.5 (≈ 6.28 µg/mL)
CCOc1nc(-c2ccc(Cl)cc2)c(SC2CCCCC2)c(-c2ccc(C)cc2)c1C#N	27 (≈ 12.5 µg/mL)
CCOc1nc(-c2ccc(Cl)cc2)c(Sc2ccc(C)cc2)c(-c2ccc(OC)cc2)c1C#N	51.3 (≈ 25 µg/mL)
COc1nc(-c2ccccc2)c(Sc2ccc(Cl)cc2)c(-c2ccc(Cl)cc2)c1C#N	27 (≈ 12.5 µg/mL)

Compound	MIC [µM]
COc1nc(-c2ccc(Cl)cc2)c(SC2CCCCC2)c(-c2ccc(C)cc2)c1C#N	28 (≈ 12.6 µg/mL)
CCOc1nc(-c2ccc([N+](=O)[O-])cc2)c(SC2CCCCC2)c(-c2ccccc2)c1C#N	6.8 (≈ 3.13 µg/mL)
CCOc1nc(-c2ccc(Cl)cc2)c(Sc2ccc(C)cc2)c(-c2ccc(N(C)C)cc2)c1C#N	> 50
CCOc1nc(-c2ccccc2)c(SC2CCCCC2)c(-c2ccccc2)c1C#N	25 (≈ 10.4 µg/mL)
COc1nc(-c2ccc(Cl)cc2)c(Sc2ccc(Cl)cc2)c(-c2ccccc2)c1C#N	27.1 (≈ 12.6 µg/mL)
CCOc1nc(-c2ccc(Cl)cc2)c(SC2CCCCC2)c(-c2ccc(N(C)C)cc2)c1C#N	25.4 (≈ 12.5 µg/mL)
CCOc1nc(-c2ccc(Cl)cc2)c(Sc2ccc(Cl)cc2)c(-c2ccccc2)c1C#N	13.1 (≈ 6.25 µg/mL)
COc1nc(-c2ccccc2)c(Sc2ccc(Cl)cc2)c(-c2ccc(N(C)C)cc2)c1C#N	26.5 (≈ 12.5 µg/mL)
CCOc1nc(-c2ccc(Br)cc2)c(Sc2ccc(Cl)cc2)c(-c2ccc(N(C)C)cc2)c1C#N	5.6 (≈ 3.16 µg/mL)
CCOc1nc(-c2ccc(Cl)cc2)c(SC2CCCCC2)c(-c2ccccc2)c1C#N	27.8 (≈ 12.5 µg/mL)
CC[C@@H](CO)NCCN[C@@H](CC)CO [ETHAMBUTOL]	7.6 (≈ 1.55 µg/mL)
CCOc1nc(-c2ccc(Cl)cc2)c(Sc2ccc(OC)cc2)c(-c2ccc(N(C)C)cc2)c1C#N	48.5 (≈ 25 µg/mL)
CCOc1nc(-c2ccc(Cl)cc2)c(Sc2ccccc2)c(-c2ccc(Cl)cc2)c1C#N	26.2 (≈ 12.5 µg/mL)
COc1ccc(-c2c(C#N)c(OC)nc(-c3ccc(Cl)cc3)c2Sc2ccc(Cl)cc2)cc1	25.4 (≈ 12.5 µg/mL)
CCOc1nc(-c2ccc(Cl)cc2)c(Sc2ccc(C)cc2)c(-c2ccc(Cl)cc2)c1C#N	25.5 (≈ 12.5 µg/mL)
COc1nc(-c2ccc(Cl)cc2)c(SC2CCCCC2)c(-c2ccc(N(C)C)cc2)c1C#N	13.1 (≈ 6.26 µg/mL)
